Results as given in PubChem BioAssay AID2305 (GlaxoSmithKline (GSK), 2010).

system: P. falciparum 3D7 growth, pLDH absorbance; assay: P. falciparum 3D7 growth inhibition, dose response, strain 3D7 (AID 2305)

Row | SMILES | IC50 [nM]
1 | COc1ccc(-c2cnn3ccc(Nc4cc(OC)c(OC)c(OC)c4)nc23)cc1OC | 650
2 | Oc1ccc2nc(N3CCNCC3)nc(NCCCc3ccccc3)c2c1 | 1370
3 | CCN1CCN(CCCNc2c3ccc(Cl)cc3nc3ccc(O)cc23)CC1 | 570
4 | c1ccc2[nH]c(-c3ccc(-c4ccc(CN5CCCCC5)cc4)s3)nc2c1 | 740
5 | Cc1cc(C)nc(-n2[nH]c(C)c(Cc3ccc(C(C)(C)C)cc3)c2=O)n1 | 1010
6 | COc1ccc2ncc(F)c(CCN3CCC(NCc4ccc5c(c4)CCO5)CC3)c2n1 | 680
7 | O=C1COC(c2ccccc2)(c2ccccc2)CN1CC1CCN(Cc2ccc(O)cc2Cl)C1 (stereo not given) | 1000
8 | NC(=O)c1cccc(C(=O)Nc2cccc(-c3cccc(-c4nc5ccc(F)cc5[nH]4)c3)c2)c1 | 250
9 | CCCCCCCCNc1c2ccc(Cl)cc2nc2ccc(OC)cc12 | 810
10 | O=c1cc(NCCCN(Cc2ccccc2)Cc2ccccc2)[nH]c2ccccc12 | 580
11 | CN1CCN(c2ccnc3ccc(NC(=O)Cc4ccc(-c5ccncc5)c5ccccc45)cc23)CC1 | 200
12 | CN(c1ccc2c(c1)nc(NCc1ccccc1)n2C)c1ccnc(Nc2ccc(CS(C)(=O)=O)cc2)n1 | 840
13 | CC1(C)N=C(N)N=C(N)N1c1ccc2ccccc2c1 | 50
14 | Cc1cccc2[nH]c(-c3cccc(-c4ccc(NC(=O)c5cccnc5)cc4)c3)nc12 | 590
15 | COc1c(C)[nH]c(C)c(-c2ccc(Oc3cccc(C(F)(F)F)c3)cc2)c1=O | 310
16 | CCOc1ccc(Br)cc1/C=C/C(=O)Nc1ccc(C2CCN(C)CC2)cc1 | 450
17 | COc1ccc2c(c1)c(C1CCN(CCCCNC(=O)c3ccc(-c4ccc(C(F)(F)F)cc4)cc3)CC1)cn2C(C)C | 730
18 | Cc1ccc(NC(=S)N2CCCN(CCCCCNC(=O)/C=C/c3ccc(Cl)c(Cl)c3)CC2)cc1Cl | 920
19 | CN(C)CCNc1cc(-c2cccnc2)nc(-c2ccncc2)n1 | 600
20 | COc1cc(-c2nc(-c3ccccc3)c(-c3ccc(C(=O)c4ccc(F)cc4)cc3)[nH]2)cc(OC)c1O | 660
21 | CC(Cc1ccc(Cl)cc1)Nc1nc(NC2CCCC2)nc(N2CCC(C#N)(c3ccccc3)CC2)n1 (stereo not given) | 710
22 | c1ccc2c(NCCCCCCNc3ccnc4ccccc34)ccnc2c1 | 190
23 | O=C(Nc1nc2cc(S(=O)(=O)NCc3ccc(Cl)c(Cl)c3)ccc2n1CCCn1ccnc1)c1ccc(Cl)cc1 | 730
24 | COc1ccccc1CN1CCC(NC(=O)c2ccc(-c3cccc(Cl)c3)s2)CC1 | 1420

Row | SMILES | IC50 [nM]
25 | CC(C)Nc1nc(NC2CCCCC2)nc(N2CCCCCCC2)n1 | 1090
26 | Cc1cc(N[C@@H](Cc2ccccc2)C(=O)NCCc2ccccc2)nc(NCCc2cccs2)n1 | 710
27 | Cc1ccnc(-n2c(C)cc(C=C3SC(=Nc4ccccc4)N(Cc4ccco4)C3=O)c2C)c1 | 240
28 | CC(C)(C)OC(=O)NCc1ccc(Nc2nnc(-c3ccc(OCC(=O)NCc4cc(C(F)(F)F)cc(C(F)(F)F)c4)c([N+](=O)[O-])c3)o2)cc1 | 460
29 | CC(C)N(Cc1cnc(N)c(C#N)n1)c1ccc(Cl)c(Cl)c1 | 840
30 | O=C(N[C@H]1CCN(Cc2ccc(OC3CCN(Cc4ccccc4)CC3)c(Br)c2)C1)c1ccc(Cl)c(Cl)c1 | 780
31 | CCn1c(-c2nonc2N)nc2c(-c3cccc(NC(=O)Nc4ccc(C#N)cc4)c3)ncc(OCCCN)c21 | 1510
32 | COc1cc(Nc2nccc(N3CCC(NC(=O)Nc4cccc(C(C)=O)c4)C3)n2)cc(OC)c1OC (stereo not given) | 970
33 | COc1ccc(C(=O)[C@H]2C[C@@H]2CN2CC=C(c3c[nH]c4cccc(Br)c34)CC2)cc1 | 930
34 | CN1CCCc2ccc(NC(=O)Nc3ccc(Cl)c(Cl)c3)cc2C1 | 600
35 | COc1ccc2ncc(Cl)c([C@@H](O)CN3CCC(NCc4cc5c(cn4)OCCO5)CC3)c2c1 | 60
36 | c1ccc(C2=NN=C(c3ccccn3)[C@H]3[C@H]4C[C@@H]([C@@H]23)[C@@H]2[C@H]4[C@H]3C[C@@H]2c2ccccc23)nc1 | 850
37 | COc1ccc(CNC(=O)NC2CCN(c3ccnc(Nc4ccc(OC)cc4)n3)C2)cc1 (stereo not given) | 1000
38 | Fc1ccccc1COc1ccc(Nc2ncnc3ccc(-c4nnc(C(F)(F)F)o4)cc23)cc1Cl | 730
39 | C=CCN(c1nc(NC)nc(NCc2c(OC)cccc2OC)n1)C1CCCC1 | 1460
40 | COc1ccc(CCNCCCCCCNCCc2cccc([N+](=O)[O-])c2)cc1OC | 1000
41 | CC(NC(=O)c1ccc(O)c(-c2ccc(Cl)c(Cl)c2)c1)C(=O)NCCN1CCCCC1 (stereo not given) | 870
42 | COc1ccc(CCNCCCCCNCCCc2ccc(Cl)cc2)cc1OC | 810
43 | CCCOc1ccccc1C(=O)Nc1nonc1-c1ccc(OCC)c(OCC)c1 | 710
44 | Clc1cc(Nc2ccnc3ccc(Br)cc23)ccc1Oc1ccc2ccccc2c1Cl | 730
45 | CN1CCN(c2cc(NC(=O)Nc3cccc(Cl)c3Cl)ccc2Cl)CC1 | 730
46 | CC(=O)Nc1ccc(CNCCc2ccc(NC(=O)c3cc(Cl)cc(Cl)c3)cc2)cc1 | 680
47 | COc1ccc2ncc(F)c(CCN3CC[C@H](NCc4cc(C#N)c5c(c4)OCCO5)[C@H](O)C3)c2c1 | 890
48 | CCCOc1c(CCNCCCCNCCc2ccc3ccccc3c2OCCC)ccc2ccccc12 | 480

Row | SMILES | IC50 [nM]
49 | CC(C)NCc1ccc(-c2cccc(-c3nc4ccc(C(F)(F)F)cc4[nH]3)c2)cc1 | 260
50 | CN(C)c1ccc(N=C2N=C(Nc3ccc(N(C)C)cc3)c3ccccc32)cc1 | 850
51 | CC1(C)N=C(N)N=C(N)N1OCCOc1ccc(Cc2ccccc2)cc1 | 40
52 | CCCCOc1ccc(-c2nc3ccccc3[nH]2)cc1 | 870
53 | C=CC[C@H](NC(=O)c1ccc(NS(=O)(=O)c2ccc3nc(N)[nH]c(=O)c3c2)cc1)C(=O)OCCCC | 150
54 | CC(C)(C)C1CCc2nc(N)nc(N)c2C1 (stereo not given) | 10
55 | c1ccc(Oc2ccc(Nc3ccnc4cc(-c5ccc(CN6CCNCC6)o5)ccc34)cc2)nc1 | 240
56 | COc1ccc2nccc([C@@H](O)CN3CCC(NCc4cc5ccccc5[nH]4)CC3)c2c1 | 1100
57 | Cc1c(Cl)cccc1S(=O)(=O)N1CCCCC(c2ccc(C(F)(F)F)cc2)=N1 | 790
58 | NC(N)=Nc1nc(-c2ccc(N=C(N)N3CCC[C@H]3CN3CCCC3)cc2)cs1 | 1110
59 | Cc1cccc2[nH]c(-c3ccc(-c4ccc(CN5CCN(CCN6CCOCC6)CC5)cc4)s3)nc12 | 240
60 | O=C(Cc1n[nH]c(=O)c2ccccc12)Nc1cccc(C(=O)Nc2cccc(C(F)(F)F)c2)c1 | 170
61 | COc1ccc(CCN2CC[C@H](Nc3nc(-c4ccc(F)c(F)c4)nc4ccccc34)C2)cc1S(N)(=O)=O | 790
62 | Cc1ccccc1C1CCN(C2CCC(NC(=O)/C=C/c3cccc(Cl)c3Cl)CC2)CC1 (stereo not given) | 1030
63 | COc1ccc(NC(=O)c2ccc(C=Cc3ccc(C(F)(F)F)cc3)cc2)cc1N1CCN(C)CC1 | 420
64 | O=C(Nc1cccnc1)c1cc(-c2cc(Cl)ccc2O)n[nH]1 | 720
65 | O=C(NCc1ccccc1)Nc1ccc(-c2cccc(-c3nc4ccc(C(F)(F)F)cc4[nH]3)c2)cc1 | 660
66 | CCOc1cc(C(=O)NCc2cccc(C(F)(F)F)c2)ccc1-c1nc2ccc(Cl)cc2[nH]1 | 980
67 | CCCC(C)NC[C@@H](O)[C@H](Cc1ccccc1)NC(=O)c1cc(C2CCCC2)cc(N2CCCCS2(=O)=O)c1 (stereo not given in full) | 150
68 | O=C(Nc1cccc(N2CCC(NCc3cnn(-c4cccc(F)c4)c3)CC2)c1)c1ccncc1 | 1390
69 | CC(C)CCCC(C)(C)NC[C@@H](O)[C@H](Cc1ccccc1)NC(=O)c1cc(NC(C)C)cc(N2CCCCS2(=O)=O)c1F | 220
70 | Cc1nc(N)nc(N)c1-c1cccc(Cl)c1 | 1170
71 | Cc1cc(N[C@@H](Cc2ccccc2)C(=O)NCCCOC(C)C)nc(NCC2CCCCC2)n1 | 880
72 | CS(=O)(=O)N1CC2(CCN(CCC(NC(=S)Nc3ccccc3)c3ccc(Cl)c(Cl)c3)CC2)c2ccccc21 (stereo not given) | 830

Row | SMILES | IC50 [nM]
73 | CCCC(=O)Nc1ccc(OCCCCN(CC(C)(C)C)c2ccc(C#N)c(C(F)(F)F)c2)cc1 | 1350
74 | COc1ccc(NC(=O)CCNc2cc(C)nc(Nc3ccccc3)n2)cc1 | 1100
75 | Cc1cc(NC(=O)c2cccs2)ccc1OC1CCN(Cc2ccccc2)C1 (stereo not given) | 890
76 | CN(C(=O)Cc1ccc(Cl)c(Cl)c1)C1CCN(CCCCCNC(=O)/C=C/c2ccc(Cl)c(Cl)c2)CC1 | 740
77 | O=C(Nc1cccc(-c2nn3ncccc3c2-c2ccnc(Nc3cccc(C(F)(F)F)c3)n2)c1)c1c(F)cccc1F | 650
78 | O=C(NC1CCCCC1)N(Cc1ccc(-c2ccc(CNC3CCCC3)cc2)cc1)C1CCN(Cc2ccccc2)CC1 | 780
79 | O=C(Nc1ccc(C(=O)N2CCN(CCN3CCN(c4cccc(C(F)(F)F)c4)CC3)CC2)cc1)c1cc(Cl)cc(Cl)c1 | 830
80 | COC(=O)c1ccccc1COc1ccc(CC2(NC(=O)[C@H](Nc3ccc(C#N)c4ccccc34)C(C)(C)C)CCCC2)cc1 | 860
81 | O=C1CN(C(=O)CCC2CCCC2)C(c2ccc(F)cc2)c2cc(F)ccc2N1 (stereo not given) | 170
82 | CCCCCCN1CCC(NCc2cccc([N+](=O)[O-])c2)CC1 | 670
83 | CN1CCN(CCCN(Cc2csc(-c3ccc(CNCc4ccccc4)cc3)n2)C(=O)Nc2cc(Cl)cc(Cl)c2)CC1 | 700
84 | COc1ccc(Cl)cc1N1CCN(CCCNC(=O)c2ccc(-c3nc4cc(Cl)c(Cl)cc4[nH]3)c(C)c2)CC1 | 870
85 | CN(C(=O)NCCc1ccccc1)C1CCN(CCCCCNC(=O)/C=C/c2ccc(Cl)c(Cl)c2)CC1 | 680
86 | CN1CCN(c2ccc(Nc3ncc(Cl)c(Nc4cccnc4C(N)=O)n3)cc2)CC1 | 150
87 | CN(c1ccccc1)S(=O)(=O)c1cccc(NC(=O)c2ccc(-n3ccnc3)c([N+](=O)[O-])c2)c1 | 1130
88 | O=c1n(CC2CCCCC2)c2cc(Cl)cc(OCCNc3ccncc3)c2n1CC1CCCCC1 | 590
89 | CCn1c(SC)nnc1C1CCCN(CC(=O)Nc2nc3ccc(OC)cc3s2)C1 (stereo not given) | 750
90 | COc1c(C2CCN(CCCCNC(=O)c3ccc(-c4ccc(Cl)cc4)cn3)CC2)ccc2c1CCCC2 | 910
91 | CC(C)(CNC(=O)[C@@H]1CCCN(CCOc2ccc(F)c(F)c2)C1)c1nc(-c2ccc(Cl)c(O)c2)c(-c2ccncc2)[nH]1 | 720
92 | O=S(=O)(NCCN1CCCC1)c1ccc(-c2ccc(CN3Cc4ccccc4C3)cc2)s1 | 930
93 | CN(C)CCOc1cc(NC(=O)Nc2ccc(-c3ccccc3)cc2)ccc1I | 600
94 | CCc1c(CCNCCCCCCNCCc2ccc([N+](=O)[O-])cc2)ccc(OC)c1OC | 730
95 | O=C(Nc1ccc(-c2cccc(-c3nc4ccccc4[nH]3)c2)cc1)Nc1ccc(F)c(F)c1F | 180
